In patent publication US8729091B2, “4-phenoxy-nicotinamide or 4-phenoxy-pyrimidine-5-carboxamide compounds” (Hoffmann-La Roche Inc., priority 2010, dated 2014):
pEC50: −log10 of the molar value.

target: T1, human GPBAR1 receptor (Homo sapiens, UniProt Q8TDU6); test: functional cAMP assay in CHO-dhfr(minus) cells expressing human GPBAR1 receptors; type: cell-based; details: cAMP increase (TR-FRET) in CHO-dhfr(minus) cells expressing human GPBAR1; compounds incubated 30 min at 30° C.
T1 construct: expressed in transfected cells
T1 sequence (Q8TDU6 1-330): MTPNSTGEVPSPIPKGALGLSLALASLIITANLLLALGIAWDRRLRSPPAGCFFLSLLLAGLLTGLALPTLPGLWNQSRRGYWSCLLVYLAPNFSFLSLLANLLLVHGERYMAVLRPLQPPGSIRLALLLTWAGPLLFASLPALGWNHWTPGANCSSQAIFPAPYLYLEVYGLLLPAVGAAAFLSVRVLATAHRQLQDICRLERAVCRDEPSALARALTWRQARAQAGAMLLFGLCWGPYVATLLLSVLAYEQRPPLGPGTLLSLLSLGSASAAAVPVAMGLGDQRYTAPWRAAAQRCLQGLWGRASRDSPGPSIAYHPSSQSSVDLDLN
Experimental: The final clone was verified by DNA sequence analysis. The plasmid was transfected into CHO cells deficient in dihydrofolate reductase activity (CHO-dhfr−) using Lipofectamine plus (Invitrogen). Clones were isolated in limited dilution conditions and identified by activities in the cAMP assay using lithocholic acid as agonist.
The growth medium was exchanged with Krebs Ringer Bicarbonate buffer with 1 mM IBMX and incubated at 30° C. for 30 min. Compounds were added to a final assay volume of 100 μl and incubated for 30 min at 30° C. […] The time-resolved energy transfer is measured by a TRF reader (Evotec Technologies GmbH, Hamburg Germany), equipped with a ND:YAG laser as excitation source.
EC50 values were determined using Activity Base analysis (ID Business Solution, Limited). […] Specificity for GPBAR1 was tested in non-transfected CHO cells in the same assay as above.

| Structure (SMILES) | pEC50 |
| --- | --- |
| COC(=O)c1cc(Cl)c(Oc2ccncc2C(=O)N2CCN(C3CC3)c3ccccc32)cc1C(=O)OC [Example 28, 4-Chloro-5-[3-(4-cyclopropyl-3,4-dihydro-2H-quinoxaline-1-carbonyl)-pyridin-4-yloxy]-phthalic acid dimethyl ester] | 8.40 |
| CN(C)c1ccccc1N(C)C(=O)c1cnccc1Oc1cc(Cl)ccc1Cl [Example 16, 4-(2,5-Dichloro-phenoxy)-N-(2-dimethylamino-phenyl)-N-methyl-nicotinamide] | 7.40 |
| Cc1cc(Oc2cc(Cl)c(C(=O)Nc3nnn[nH]3)cc2Cl)c(C(=O)N2CCN(C3CC3)c3ccccc32)cn1 [Example 71, 2,5-Dichloro-4-[5-(4-cyclopropyl-3,4-dihydro-2H-quinoxaline-1-carbonyl)-2-methyl-pyridin-4-yloxy]-N-(1H-tetrazol-5-yl)-benzamide] | 7.00 |
| O=C(c1cnc(Cl)cc1Oc1cc(Cl)ccc1Cl)N1CCCc2ccccc21 [Example 74, [6-Chloro-4-(2,5-dichloro-phenoxy)-pyridin-3-yl]-(3,4-dihydro-2H-quinolin-1-yl)-methanone] | 7.66 |
| CN(C)c1ccc(Cl)cc1N(C)C(=O)c1cnccc1Oc1cc(Cl)ccc1Cl [Example 20, N-(5-Chloro-2-dimethylamino-phenyl)-4-(2,5-dichloro-phenoxy)-N-methyl-nicotinamide] | 6.40 |
| O=C(c1c[n+]([O-])ccc1Oc1cc(Cl)ccc1Cl)N1CCN(C2CC2)c2ccccc21 [Example 75, (4-Cyclopropyl-3,4-dihydro-2H-quinoxalin-1-yl)-[4-(2,5-dichloro-phenoxy)-1-oxy-pyridin-3-yl]-methanone] | 8.00 |

More lines, in order of rising pEC50, values ahead:

| pEC50 | Structure (SMILES) |
| --- | --- |
| 6.05 | O=C(NCCCS(=O)(=O)O)c1cc(Cl)c(Oc2ccncc2C(=O)N2CCN(C3CC3)c3ccccc32)cc1Cl [Example 37, 3-{2,5-Dichloro-4-[3-(4-cyclopropyl-3,4-dihydro-2H-quinoxaline-1-carbonyl)-pyridin-4-yloxy]-benzoylamino}-propane-1-sulfonic acid] |
| 6.52 | O=C(c1cncnc1Oc1cc(Cl)ccc1Cl)N1CCNc2ccccc21 [Example 78, [4-(2,5-Dichloro-phenoxy)-pyrimidin-5-yl]-(3,4-dihydro-2H-quinoxalin-1-yl)-methanone] |
| 6.52 | CN(CCS(=O)(=O)O)C(=O)c1cc(Cl)c(Oc2ccncc2C(=O)N2CCN(C3CC3)c3ccccc32)cc1Cl [Example 36, 2-({2,5-Dichloro-4-[3-(4-cyclopropyl-3,4-dihydro-2H-quinoxaline-1-carbonyl)-pyridin-4-yloxy]-benzoyl}-methyl-amino)-ethanesulfonic acid] |
| 7.00 | COc1ccccc1N(C)C(=O)c1cnccc1Oc1cc(Cl)ccc1Cl [Example 14, 4-(2,5-Dichloro-phenoxy)-N-(2-methoxy-phenyl)-N-methyl-nicotinamide] |
| 7.00 | COC(=O)CNC(=O)c1cc(Cl)c(Oc2ccncc2C(=O)N2CCN(C3CC3)c3ccccc32)cc1Cl [Example 29, {2,5-Dichloro-4-[3-(4-cyclopropyl-3,4-dihydro-2H-quinoxaline-1-carbonyl)-pyridin-4-yloxy]-benzoylamino}-acetic acid methyl ester] |
| 7.70 | Cc1cc(Oc2cc(Cl)c(Br)cc2Cl)c(C(=O)N2CCN(C3CC3)c3ccccc32)cn1 [Example 64, [4-(4-Bromo-2,5-dichloro-phenoxy)-6-methyl-pyridin-3-yl]-(4-cyclopropyl-3,4-dihydro-2H-quinoxalin-1-yl)-methanone] |
| 7.70 | O=C(O)c1ccc(NC(=O)c2cc(Cl)c(Oc3ccncc3C(=O)N3CCN(C4CC4)c4ccccc43)cc2Cl)cc1 [Example 44, 4-{2,5-Dichloro-4-[3-(4-cyclopropyl-3,4-dihydro-2H-quinoxaline-1-carbonyl)-pyridin-4-yloxy]-benzoylamino}-benzoic acid] |
